Patent US9179674B2, “Macrocyclic picolinamide compounds with fungicidal activity” (DOW AGROSCIENCES LLC, priority 2013, dated 2015)
Like-named read-outs stand apart in the source and are kept apart here.

Tests used:
[1] = system: Mycosphaerella graminicola; Anamorph: Septoria tritici; assay: Leaf Blotch of Wheat fungicidal activity (SEPTTR); format: in vivo; settings: Zymoseptoria tritici; for pest or weed control at 100 ppm: rate 100 ppm; for pest or weed control at 121.5 g/ha: rate 121.5 g/H
Protocol: Evaluation of Fungicidal Activity: Leaf Blotch of Wheat (Mycosphaerella graminicola; Anamorph: Septoria tritici; Bayer code […]) Technical grades of materials were dissolved in acetone, which were then mixed with nine volumes of water containing 110 ppm Triton X-100. The fungicide solutions were applied onto wheat seedlings using an automated booth sprayer to run-off. All sprayed plants were allowed to air dry prior to further handling. All fungicides were evaluated using the aforementioned method for their activity vs. all target diseases. Wheat leaf blotch and brown rust activity were also evaluated using track spray applications, in which case the fungicides were formulated as EC formulations, containing 0.1% Trycol 5941 in the spray solutions. Wheat plants (variety Yuma) were grown from seed in a greenhouse in 50% mineral soil/50% soil-less Metro mix until the first leaf was fully emerged, with 7-10 seedlings per pot. These plants were inoculated with an aqueous spore suspension of Septoria tritici either prior to or after fungicide treatments. After inoculation the plants were kept in 100% relative humidity (one day in a dark dew chamber followed by two to three days in a lighted dew chamber at 20° C.) to permit spores to germinate and infect the leaf. The plants were then transferred to a greenhouse set at 20° C. for disease to develop. When disease symptoms were fully expressed on the 1st leaves of untreated plants, infection levels were assessed on a scale of 0 to 100 percent disease severity. Percent disease control was calculated using the ratio of disease severity on treated plants relative to untreated plants.

[2] = system: Puccinia triticina; assay: Wheat Brown Rust fungicidal activity (PUCCRT); format: in vivo; settings: Puccinia triticina; for pest or weed control at 100 ppm: rate 100 ppm; for pest or weed control at 121.5 g/ha: rate 121.5 g/H
Protocol: Technical grades of materials were dissolved in acetone, which were then mixed with nine volumes of water containing 110 ppm Triton X-100. The fungicide solutions were applied onto wheat seedlings using an automated booth sprayer to run-off. All sprayed plants were allowed to air dry prior to further handling. All fungicides were evaluated using the aforementioned method for their activity vs. all target diseases. Wheat leaf blotch and brown rust activity were also evaluated using track spray applications, in which case the fungicides were formulated as EC formulations, containing 0.1% Trycol 5941 in the spray solutions. Wheat plants (variety Yuma) were grown from seed in a greenhouse in 50% mineral soil/50% soil-less Metro mix until the first leaf was fully emerged, with 7-10 seedlings per pot. These plants were inoculated with an aqueous spore suspension of Septoria tritici either prior to or after fungicide treatments. After inoculation the plants were kept in 100% relative humidity (one day in a dark dew chamber followed by two to three days in a lighted dew chamber at 20° C.) to permit spores to germinate and infect the leaf. The plants were then transferred to a greenhouse set at 20° C. for disease to develop. When disease symptoms were fully expressed on the 1st leaves of untreated plants, infection levels were assessed on a scale of 0 to 100 percent disease severity. Percent disease control was calculated using the ratio of disease severity on treated plants relative to untreated plants. Evaluation of Fungicidal Activity: Wheat Brown Rust (Puccinia triticina; Synonym: Puccinia recondite f sp. tritici; Bayer code PUCCRT) Wheat plants (variety Yuma) were grown from seed in a greenhouse in 50% mineral soil/50% soil-less Metro mix until the first leaf was fully emerged, with 7-10 seedlings per pot. These plants were inoculated with an aqueous spore suspension of Puccinia triticina either prior to or after fungicide treatments. After inoculation the plants were kept in a dark dew room at 22° C. with 100% relative humidity overnight to permit spores to germinate and infect the leaf. The plants were then transferred to a greenhouse set at 24° C. for disease to develop. Fungicide formulation, application and disease assessment followed the procedures as described in the Example A.

[3] = 24 h, 1 Day Protectant, read-out: Disease control SEPTTR 1DP
[4] = 72 h, 3 Day Curative, read-out: Disease control SEPTTR 3DC
[5] = 24 h, 1 Day Protectant, read-out: Disease control PUCCRT 1DP
[6] = 72 h, 3 Day Curative, read-out: Disease control PUCCRT 3DC

COc1ccnc(C(=O)N[C@H]2COC[C@H](CCC(C)C)[C@@H](Oc3ccc(C)cc3)[C@H](C)OC2=O)c1O [Compound F37]
pest or weed control at 100 ppm [1, 3]: 80 to 100% | pest or weed control at 100 ppm [1, 4]: 80 to 100% | pest or weed control at 100 ppm [2, 5]: 80 to 100% | pest or weed control at 100 ppm [2, 6]: 0 to 80%

COc1ccnc(C(=O)N[C@H]2COC[C@H](Cc3ccc(C(F)(F)F)cc3)[C@@H](OC3CCCC3)[C@H](C)OC2=O)c1O [Compound F28]
pest or weed control at 100 ppm [1, 3]: 80 to 100% | pest or weed control at 100 ppm [1, 4]: 0 to 80% | pest or weed control at 100 ppm [2, 5]: 80 to 100% | pest or weed control at 100 ppm [2, 6]: 0 to 80%

COc1ccnc(C(=O)N[C@H]2COC[C@H](CCC(C)C)[C@@H](OC3CCCC3)[C@H](C)OC2=O)c1OC(C)=O [Compound F71]
pest or weed control at 100 ppm [1, 3]: 80 to 100% | pest or weed control at 100 ppm [1, 4]: 80 to 100% | pest or weed control at 100 ppm [2, 5]: 80 to 100% | pest or weed control at 100 ppm [2, 6]: 80 to 100%

COc1ccnc(C(=O)N[C@H]2COC[C@H](Cc3ccc(C(F)(F)F)cc3)[C@@H](OCC(C)C)[C@H](C)OC2=O)c1OCOC(C)=O [Compound F99]
pest or weed control at 100 ppm [1, 3]: 80 to 100% | pest or weed control at 121.5 g/ha [1, 3]: 80 to 100% | pest or weed control at 100 ppm [1, 4]: 80 to 100% | pest or weed control at 121.5 g/ha [1, 4]: 80 to 100% | pest or weed control at 100 ppm [2, 5]: 80 to 100% | pest or weed control at 121.5 g/ha [2, 5]: 80 to 100% | pest or weed control at 100 ppm [2, 6]: 80 to 100% | pest or weed control at 121.5 g/ha [2, 6]: 0 to 80%

COc1ccnc(C(=O)N[C@H]2COC[C@H](Cc3ccc(C(F)(F)F)cc3)[C@@H](OC(=O)C(C)C)[C@H](C)OC2=O)c1OCOC(C)=O [Compound F102]
pest or weed control at 100 ppm [1, 3]: 80 to 100% | pest or weed control at 100 ppm [1, 4]: 80 to 100% | pest or weed control at 100 ppm [2, 5]: 80 to 100% | pest or weed control at 100 ppm [2, 6]: 80 to 100%

CCCO[C@@H]1[C@@H](CCC(C)C)COC[C@H](NC(=O)c2nccc(OC)c2O)C(=O)O[C@H]1C [Compound F38]
pest or weed control at 100 ppm [1, 3]: 80 to 100% | pest or weed control at 100 ppm [1, 4]: 80 to 100% | pest or weed control at 100 ppm [2, 5]: 80 to 100% | pest or weed control at 100 ppm [2, 6]: 80 to 100%

COc1ccnc(C(=O)N[C@H]2COC[C@H](Cc3ccc(C)cc3)[C@@H](OCC(C)C)[C@H](C)OC2=O)c1O [Compound F48, 3-hydroxy-N-((3S,7S,8R,9S)-8-isobutoxy-9-methyl-7-(4-methylbenzyl)-2-oxo-1,5-dioxonan-3-yl)-4-methoxypicolinamide]
pest or weed control at 100 ppm [1, 3]: 80 to 100% | pest or weed control at 100 ppm [1, 4]: 0 to 80% | pest or weed control at 100 ppm [2, 5]: 80 to 100% | pest or weed control at 100 ppm [2, 6]: 80 to 100%

COc1ccnc(C(=O)N[C@H]2COC[C@H](Cc3ccc(C)cc3)[C@@H](Oc3ccccc3)[C@H](C)OC2=O)c1O [Compound F24]
pest or weed control at 100 ppm [1, 3]: 80 to 100% | pest or weed control at 100 ppm [1, 4]: 0 to 80% | pest or weed control at 100 ppm [2, 5]: 80 to 100% | pest or weed control at 100 ppm [2, 6]: 0 to 80%

CCCO[C@@H]1[C@@H](CCC(C)C)COC[C@H](NC(=O)c2nccc(OC)c2OC(C)=O)C(=O)O[C@H]1C [Compound F70]
pest or weed control at 100 ppm [1, 3]: 80 to 100% | pest or weed control at 100 ppm [1, 4]: 80 to 100% | pest or weed control at 100 ppm [2, 5]: 80 to 100% | pest or weed control at 100 ppm [2, 6]: 80 to 100%

COc1ccnc(C(=O)N[C@H]2COC[C@H](Cc3ccc(C)cc3)[C@@H](OC3CCCC3)[C@H](C)OC2=O)c1O [Compound F25]
pest or weed control at 100 ppm [1, 3]: 80 to 100% | pest or weed control at 100 ppm [1, 4]: 80 to 100% | pest or weed control at 100 ppm [2, 5]: 80 to 100% | pest or weed control at 100 ppm [2, 6]: 0 to 80%
